Assay results reported in PubChem BioAssay AID1745844 (Carcinogenic Potency Database (CPDB), 2022).
Active and inactive are the calls of the source. The rule behind the calls is not given here.

Test system: rodent lifetime carcinogenesis bioassay, tumor incidence TD50
Assay: chronic cancer bioassays in animals – CPDB, compiled studies (AID 1745844)

Molecule COc1ccc(N)cc1N has a TD50 (mouse, strain B6C3F1, females, in feed, site: all sites, lesion: lymphoma, dosed 78 weeks, study length 96 weeks) of 262 mg/kg/day, a TD50 (mouse, strain B6C3F1, females, in feed, site: any site (literature study), lesion: several types, types named in the paper, dosed 78 weeks, study length 96 weeks) of 311 mg/kg/day and a TD50 (mouse, strain B6C3F1, females, in feed, site: liver, lesion: hepatocellular adenoma + hepatocellular carcinoma + neoplastic nodule, dosed 78 weeks, study length 96 weeks) of 7350 mg/kg/day. The TD50 (mouse, strain B6C3F1, females, in feed, site: lung, lesion: alveolar/bronchiolar adenoma + alveolar/bronchiolar carcinoma, dosed 78 weeks, study length 96 weeks) was 10900 mg/kg/day, the TD50 (mouse, strain B6C3F1, females, in feed, site: thyroid gland, lesion: follicular-cell adenoma + follicular-cell carcinoma, dosed 78 weeks, study length 96 weeks) was 1060 mg/kg/day and the TD50 (mouse, strain B6C3F1, females, in feed, site: thyroid gland, lesion: follicular-cell adenoma, dosed 78 weeks, study length 96 weeks) was 1450 mg/kg/day. The TD50 (mouse, strain B6C3F1, males, in feed, site: any site (literature study), lesion: several types, types named in the paper, dosed 78 weeks, study length 96 weeks) was 354 mg/kg/day, the TD50 (mouse, strain B6C3F1, males, in feed, site: liver, lesion: hepatocellular adenoma + hepatocellular carcinoma + neoplastic nodule, dosed 78 weeks, study length 96 weeks) was 926 mg/kg/day and the TD50 (mouse, strain B6C3F1, males, in feed, site: lung, lesion: alveolar/bronchiolar adenoma + alveolar/bronchiolar carcinoma, dosed 78 weeks, study length 96 weeks) was 2560 mg/kg/day. The TD50 (mouse, strain B6C3F1, males, in feed, site: thyroid gland, lesion: follicular-cell adenoma, dosed 78 weeks, study length 96 weeks) was 791 mg/kg/day, the TD50 (rat, strain Fischer 344, females, in feed, site: Zymbal's gland, lesion: sebaceous adenocarcinoma, dosed 78 weeks, study length 107 weeks) was 665 mg/kg/day and the TD50 (rat, strain Fischer 344, females, in feed, site: any site (literature study), lesion: several types, types named in the paper, dosed 78 weeks, study length 107 weeks) was 181 mg/kg/day. It also gave a TD50 (rat, strain Fischer 344, females, in feed, site: any site (literature study), lesion: several types, types named in the paper, dosed 83 weeks, study length 86 weeks) of 67.3 mg/kg/day, a TD50 (rat, strain Fischer 344, females, in feed, site: clitoral gland + uterus, endometrium, lesion: carcinoma, NOS + adenocarcinoma, NOS + papillary carcinoma, dosed 78 weeks, study length 107 weeks) of 408 mg/kg/day and a TD50 (rat, strain Fischer 344, females, in feed, site: clitoral gland, lesion: adenoma, NOS + carcinoma, NOS + cystadenoma, NOS + squamous-cell carcinoma + squamous-cell papilloma, dosed 78 weeks, study length 107 weeks) of 416 mg/kg/day. The TD50 (rat, strain Fischer 344, females, in feed, site: clitoral gland, lesion: several types, types named in the paper, dosed 83 weeks, study length 86 weeks) was 113 mg/kg/day, the TD50 (rat, strain Fischer 344, females, in feed, site: clitoral gland, lesion: squamous-cell carcinoma, sebaceous, dosed 83 weeks, study length 86 weeks) was 162 mg/kg/day and the TD50 (rat, strain Fischer 344, females, in feed, site: liver, lesion: hepatocellular adenoma + hepatocellular carcinoma + neoplastic nodule, dosed 78 weeks, study length 107 weeks) was 14500 mg/kg/day. The TD50 (rat, strain Fischer 344, females, in feed, site: mammary gland, lesion: several types, types named in the paper, dosed 83 weeks, study length 86 weeks) was 1290 mg/kg/day, the TD50 (rat, strain Fischer 344, females, in feed, site: thyroid gland + Zymbal's gland, lesion: adenocarcinoma, NOS + follicular-cell carcinoma + papillary cystadenocarcinoma, NOS + sebaceous adenocarcinoma, dosed 78 weeks, study length 107 weeks) was 301 mg/kg/day and the TD50 (rat, strain Fischer 344, females, in feed, site: thyroid gland, lesion: adenocarcinoma, NOS + follicular-cell carcinoma + papillary cystadenocarcinoma, NOS, dosed 78 weeks, study length 107 weeks) was 425 mg/kg/day. For the same molecule, the TD50 (rat, strain Fischer 344, females, in feed, site: thyroid gland, lesion: follicular-cell adenoma, dosed 83 weeks, study length 86 weeks) was 296 mg/kg/day, the TD50 (rat, strain Fischer 344, females, in feed, site: thyroid gland, lesion: several types, types named in the paper, dosed 83 weeks, study length 86 weeks) was 162 mg/kg/day and the TD50 (rat, strain Fischer 344, males, in feed, site: any site (literature study), lesion: several types, types named in the paper, dosed 78 weeks, study length 107 weeks) was 135 mg/kg/day. It also gave a TD50 (rat, strain Fischer 344, males, in feed, site: ear canal + ear + Zymbal's gland, lesion: sebaceous adenocarcinoma + squamous-cell carcinoma, dosed 78 weeks, study length 107 weeks) of 709 mg/kg/day, a TD50 (rat, strain Fischer 344, males, in feed, site: ear canal + ear + preputial gland + skin + thyroid gland + Zymbal's gland, lesion: sebaceous adenocarcinoma + squamous-cell carcinoma + adenoma, NOS + carcinoma, NOS + cystadenoma, NOS + papillary adenoma + basal-ce, dosed 78 weeks, study length 107 weeks) of 72.6 mg/kg/day and a TD50 (rat, strain Fischer 344, males, in feed, site: liver, lesion: hepatocellular adenoma + hepatocellular carcinoma + neoplastic nodule, dosed 78 weeks, study length 107 weeks) of 1610 mg/kg/day. The TD50 (rat, strain Fischer 344, males, in feed, site: preputial gland, lesion: adenoma, NOS + carcinoma, NOS + cystadenoma, NOS + papillary adenoma, dosed 78 weeks, study length 107 weeks) was 351 mg/kg/day, the TD50 (rat, strain Fischer 344, males, in feed, site: preputial gland, lesion: adenoma, NOS + cystadenoma, NOS + papillary adenoma, dosed 78 weeks, study length 107 weeks) was 530 mg/kg/day and the TD50 (rat, strain Fischer 344, males, in feed, site: skin, lesion: basal-cell carcinoma + sebaceous adenocarcinoma + squamous-cell carcinoma, dosed 78 weeks, study length 107 weeks) was 358 mg/kg/day. The TD50 (rat, strain Fischer 344, males, in feed, site: thyroid gland, lesion: adenocarcinoma, NOS + follicular-cell carcinoma + papillary adenocarcinoma + papillary cystadenocarcinoma, NOS, dosed 78 weeks, study length 107 weeks) was 192 mg/kg/day, the TD50 (rat, strain Fischer 344, males, in feed, site: thyroid gland, lesion: adenocarcinoma, NOS, dosed 78 weeks, study length 107 weeks) was 252 mg/kg/day and the TD50 (rat, strain Fischer 344, males, in feed, site: thyroid gland, lesion: c-cell adenoma + c-cell carcinoma, dosed 78 weeks, study length 107 weeks) was 319 mg/kg/day.

ClCC(Cl)(Cl)Cl was tested, and the TD50 (mouse, strain B6C3F1, females, by gavage, site: any site (literature study), lesion: several types, types named in the paper, dosed 103 weeks, study length 104 weeks) was 110 mg/kg/day, the TD50 (mouse, strain B6C3F1, females, by gavage, site: liver, lesion: hepatocellular adenoma + hepatocellular carcinoma + neoplastic nodule, dosed 103 weeks, study length 104 weeks) was 175 mg/kg/day and the TD50 (mouse, strain B6C3F1, females, by gavage, site: liver, lesion: hepatocellular adenoma + hepatocellular carcinoma, dosed 103 weeks, study length 104 weeks) was 175 mg/kg/day. For the same molecule, the TD50 (mouse, strain B6C3F1, females, by gavage, site: liver, lesion: hepatocellular adenoma, dosed 103 weeks, study length 104 weeks) was 254 mg/kg/day, the TD50 (mouse, strain B6C3F1, females, by gavage, site: liver, lesion: hepatocellular carcinoma, dosed 103 weeks, study length 104 weeks) was 640 mg/kg/day and the TD50 (mouse, strain B6C3F1, females, by gavage, site: lung, lesion: alveolar/bronchiolar adenoma + alveolar/bronchiolar carcinoma, dosed 103 weeks, study length 104 weeks) was 1820 mg/kg/day. It also gave a TD50 (mouse, strain B6C3F1, males, by gavage, site: any site (literature study), lesion: several types, types named in the paper, dosed 103 weeks, study length 104 weeks) of 97.9 mg/kg/day, a TD50 (mouse, strain B6C3F1, males, by gavage, site: liver, lesion: hepatocellular adenoma + hepatocellular carcinoma + neoplastic nodule, dosed 103 weeks, study length 104 weeks) of 124 mg/kg/day and a TD50 (mouse, strain B6C3F1, males, by gavage, site: liver, lesion: hepatocellular adenoma + hepatocellular carcinoma, dosed 103 weeks, study length 104 weeks) of 124 mg/kg/day. It also gave a TD50 (mouse, strain B6C3F1, males, by gavage, site: liver, lesion: hepatocellular adenoma, dosed 103 weeks, study length 104 weeks) of 190 mg/kg/day, a TD50 (mouse, strain B6C3F1, males, by gavage, site: lung, lesion: alveolar/bronchiolar adenoma + alveolar/bronchiolar carcinoma, dosed 103 weeks, study length 104 weeks) of 1330 mg/kg/day and a TD50 (rat, strain Fischer 344, females, by gavage, site: liver, lesion: hepatocellular adenoma + hepatocellular carcinoma + neoplastic nodule, dosed 103 weeks, study length 104 weeks) of 3980 mg/kg/day. The TD50 (rat, strain Fischer 344, females, by gavage, site: mammary gland, lesion: fibroadenoma, dosed 103 weeks, study length 104 weeks) was 170 mg/kg/day (inactive), the TD50 (rat, strain Fischer 344, males, by gavage, site: any site (literature study), lesion: several types, types named in the paper, dosed 103 weeks, study length 104 weeks) was 464 mg/kg/day and the TD50 (rat, strain Fischer 344, males, by gavage, site: liver, lesion: hepatocellular adenoma + hepatocellular carcinoma + neoplastic nodule, dosed 103 weeks, study length 104 weeks) was 1130 mg/kg/day. The TD50 (rat, strain Fischer 344, males, by gavage, site: multiple organs + peritoneum + tunica vaginalis, lesion: mesothelioma, malignant + mesothelioma, NOS, dosed 103 weeks, study length 104 weeks) was 842 mg/kg/day (inactive).
